Data taken from ChEMBL document CHEMBL5465560, “Selectivity Literature for EUbOPEN Chemogenomic Library” (2024).

Legend:
[1] = target: T1, Ephrin type-B receptor 6 (Homo sapiens) (UniProt O15197); experiment: Selectivity interaction (KinomeScan (DiscoverX)) EUB0000092b EPHB6; settings: at 10 µM
T1 sequence (whole entry): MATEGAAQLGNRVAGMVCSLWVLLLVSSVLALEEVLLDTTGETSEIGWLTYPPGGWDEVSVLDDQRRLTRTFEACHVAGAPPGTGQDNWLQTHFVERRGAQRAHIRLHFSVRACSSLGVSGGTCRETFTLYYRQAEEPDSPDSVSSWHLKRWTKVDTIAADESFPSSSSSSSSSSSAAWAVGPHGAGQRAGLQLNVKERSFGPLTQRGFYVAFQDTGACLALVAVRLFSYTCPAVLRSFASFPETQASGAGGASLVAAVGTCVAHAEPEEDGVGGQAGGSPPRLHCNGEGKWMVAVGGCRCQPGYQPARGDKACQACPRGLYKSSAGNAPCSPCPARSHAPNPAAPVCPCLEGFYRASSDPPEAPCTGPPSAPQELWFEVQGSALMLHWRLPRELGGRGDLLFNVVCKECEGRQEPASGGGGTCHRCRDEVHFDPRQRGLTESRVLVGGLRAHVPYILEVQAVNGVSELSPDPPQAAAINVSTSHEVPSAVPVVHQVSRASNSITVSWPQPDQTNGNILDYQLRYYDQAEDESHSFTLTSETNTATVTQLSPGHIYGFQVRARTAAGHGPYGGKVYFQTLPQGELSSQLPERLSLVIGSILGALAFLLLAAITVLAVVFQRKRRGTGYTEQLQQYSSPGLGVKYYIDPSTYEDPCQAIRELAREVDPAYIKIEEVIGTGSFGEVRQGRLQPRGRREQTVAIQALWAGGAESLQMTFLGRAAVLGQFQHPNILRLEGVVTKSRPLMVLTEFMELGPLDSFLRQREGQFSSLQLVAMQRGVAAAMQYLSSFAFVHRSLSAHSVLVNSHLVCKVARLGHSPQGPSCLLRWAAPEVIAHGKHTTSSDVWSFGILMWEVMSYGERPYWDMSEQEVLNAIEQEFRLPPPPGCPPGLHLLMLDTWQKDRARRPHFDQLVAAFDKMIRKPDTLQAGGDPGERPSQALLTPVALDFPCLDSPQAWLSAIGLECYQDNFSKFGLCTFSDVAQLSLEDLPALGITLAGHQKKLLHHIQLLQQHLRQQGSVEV

[2] = target: Macrophage-stimulating protein receptor (Homo sapiens, UniProt Q04912); experiment: Selectivity interaction (ProQinase) EUB0000171b MST1R
[3] = target: Serine/threonine-protein kinase MARK1 (Homo sapiens) (UniProt Q9P0L2); experiment: Selectivity interaction (Kinase panel (KiNativ target engagement assay in Jurkat cells)) EUB0001635a MARK1; format: cell-based; settings: at 1 µM
[4] = target: Tyrosine-protein kinase BTK (Homo sapiens, UniProt Q06187); experiment: Selectivity interaction (Kinase panel (33PanQinase(R) Activity Assay)) EUB0000877a BTK
[5] = target: Glycogen synthase kinase-3 beta (Homo sapiens, UniProt P49841)
[6] = target: T2, Serine/threonine-protein kinase D1 (Homo sapiens) (UniProt Q15139); experiment: Selectivity interaction (KinomeScan (DiscoverX)) EUB0000607a PRKD1; settings: at 10 µM
T2 sequence (whole entry): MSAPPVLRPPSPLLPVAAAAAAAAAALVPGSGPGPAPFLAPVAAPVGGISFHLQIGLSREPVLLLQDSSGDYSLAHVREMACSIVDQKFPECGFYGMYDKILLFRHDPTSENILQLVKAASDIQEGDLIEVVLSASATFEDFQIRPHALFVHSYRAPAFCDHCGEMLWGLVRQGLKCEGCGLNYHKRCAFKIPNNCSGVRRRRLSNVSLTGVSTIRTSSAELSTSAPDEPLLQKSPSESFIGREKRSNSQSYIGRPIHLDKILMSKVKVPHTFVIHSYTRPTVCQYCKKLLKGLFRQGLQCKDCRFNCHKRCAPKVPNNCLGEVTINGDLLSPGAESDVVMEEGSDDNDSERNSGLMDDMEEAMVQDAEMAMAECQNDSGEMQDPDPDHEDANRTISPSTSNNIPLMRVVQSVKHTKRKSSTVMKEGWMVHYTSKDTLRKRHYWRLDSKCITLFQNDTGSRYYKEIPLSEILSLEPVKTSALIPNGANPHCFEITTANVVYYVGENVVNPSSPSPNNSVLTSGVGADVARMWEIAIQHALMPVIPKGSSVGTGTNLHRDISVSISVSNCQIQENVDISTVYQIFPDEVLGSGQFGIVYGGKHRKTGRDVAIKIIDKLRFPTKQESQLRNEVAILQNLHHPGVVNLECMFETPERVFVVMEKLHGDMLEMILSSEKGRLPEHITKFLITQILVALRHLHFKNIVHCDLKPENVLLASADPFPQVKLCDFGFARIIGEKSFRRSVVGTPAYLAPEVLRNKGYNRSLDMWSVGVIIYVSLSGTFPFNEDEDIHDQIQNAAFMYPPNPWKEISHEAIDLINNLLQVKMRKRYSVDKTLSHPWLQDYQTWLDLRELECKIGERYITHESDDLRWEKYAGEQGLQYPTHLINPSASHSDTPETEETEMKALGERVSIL

[7] = target: Phosphatidylinositol 4-kinase beta (Homo sapiens, UniProt Q9UBF8); experiment: Selectivity interaction (ActivX KiNativ screen (ex vivo kinase selectivity in human PBMCs)) EUB0001619a PI4KB; format: cell-based; settings: PBMC, at 1 µM
Sequence of Phosphatidylinositol 4-kinase beta (Q9UBF8 2-816 limits assumed): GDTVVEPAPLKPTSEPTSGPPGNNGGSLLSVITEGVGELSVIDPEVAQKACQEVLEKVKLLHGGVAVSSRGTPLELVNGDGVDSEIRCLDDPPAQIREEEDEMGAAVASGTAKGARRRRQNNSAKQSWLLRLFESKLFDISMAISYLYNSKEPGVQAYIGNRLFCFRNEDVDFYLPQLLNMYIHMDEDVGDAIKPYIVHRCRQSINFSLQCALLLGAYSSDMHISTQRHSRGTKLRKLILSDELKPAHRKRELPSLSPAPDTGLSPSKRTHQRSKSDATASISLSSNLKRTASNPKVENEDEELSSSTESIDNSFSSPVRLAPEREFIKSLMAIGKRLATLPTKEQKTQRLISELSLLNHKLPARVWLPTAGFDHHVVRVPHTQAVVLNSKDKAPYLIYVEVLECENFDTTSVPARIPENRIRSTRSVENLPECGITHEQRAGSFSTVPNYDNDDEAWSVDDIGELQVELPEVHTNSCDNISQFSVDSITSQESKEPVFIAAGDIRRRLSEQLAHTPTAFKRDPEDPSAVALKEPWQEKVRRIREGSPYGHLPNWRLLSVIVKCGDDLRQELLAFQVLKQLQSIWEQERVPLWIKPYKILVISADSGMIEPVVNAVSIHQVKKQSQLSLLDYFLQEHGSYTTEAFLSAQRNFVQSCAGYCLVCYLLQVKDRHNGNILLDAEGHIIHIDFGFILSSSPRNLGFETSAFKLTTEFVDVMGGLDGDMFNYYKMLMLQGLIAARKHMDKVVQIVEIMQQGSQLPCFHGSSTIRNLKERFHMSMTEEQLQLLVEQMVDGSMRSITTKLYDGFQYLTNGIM

Sequence of Macrophage-stimulating protein receptor (Q04912 25-304 limits assumed): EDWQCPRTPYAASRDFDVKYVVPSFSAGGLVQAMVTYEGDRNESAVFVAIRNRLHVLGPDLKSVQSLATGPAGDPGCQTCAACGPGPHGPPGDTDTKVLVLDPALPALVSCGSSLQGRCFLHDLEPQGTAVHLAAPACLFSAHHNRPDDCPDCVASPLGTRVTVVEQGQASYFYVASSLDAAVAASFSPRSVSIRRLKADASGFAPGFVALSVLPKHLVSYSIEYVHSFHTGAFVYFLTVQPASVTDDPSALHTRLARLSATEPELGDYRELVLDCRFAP
Sequence of Macrophage-stimulating protein receptor (Q04912 310-1400 limits assumed): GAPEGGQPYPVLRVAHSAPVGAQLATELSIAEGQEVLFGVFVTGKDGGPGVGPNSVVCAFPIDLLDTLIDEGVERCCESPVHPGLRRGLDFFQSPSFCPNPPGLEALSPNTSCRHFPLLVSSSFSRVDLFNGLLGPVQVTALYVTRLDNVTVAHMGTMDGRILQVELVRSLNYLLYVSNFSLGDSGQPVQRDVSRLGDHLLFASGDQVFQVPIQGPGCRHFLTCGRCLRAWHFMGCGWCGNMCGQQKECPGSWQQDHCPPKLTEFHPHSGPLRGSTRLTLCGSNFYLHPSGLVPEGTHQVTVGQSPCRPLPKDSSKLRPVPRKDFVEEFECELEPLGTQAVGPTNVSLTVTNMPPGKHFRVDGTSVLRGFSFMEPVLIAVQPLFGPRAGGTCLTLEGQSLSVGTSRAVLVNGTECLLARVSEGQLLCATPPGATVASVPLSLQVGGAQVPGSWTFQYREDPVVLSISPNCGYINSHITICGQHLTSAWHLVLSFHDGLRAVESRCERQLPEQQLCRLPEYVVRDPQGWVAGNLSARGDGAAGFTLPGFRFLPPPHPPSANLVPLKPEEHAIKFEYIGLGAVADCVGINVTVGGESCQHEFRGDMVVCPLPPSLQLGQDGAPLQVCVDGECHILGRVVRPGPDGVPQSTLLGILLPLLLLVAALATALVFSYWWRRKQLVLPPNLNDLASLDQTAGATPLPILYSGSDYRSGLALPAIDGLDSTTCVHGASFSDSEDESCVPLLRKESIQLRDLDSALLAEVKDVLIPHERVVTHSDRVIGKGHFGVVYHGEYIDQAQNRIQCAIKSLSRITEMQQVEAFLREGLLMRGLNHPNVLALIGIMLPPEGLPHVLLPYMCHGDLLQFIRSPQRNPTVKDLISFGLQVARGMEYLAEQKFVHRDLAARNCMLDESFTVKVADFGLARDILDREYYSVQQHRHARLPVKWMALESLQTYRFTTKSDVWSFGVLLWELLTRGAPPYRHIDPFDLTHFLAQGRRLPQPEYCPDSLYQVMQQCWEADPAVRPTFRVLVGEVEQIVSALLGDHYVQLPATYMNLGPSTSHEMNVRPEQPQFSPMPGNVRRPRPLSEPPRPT
Sequence of Glycogen synthase kinase-3 beta (P49841 whole entry): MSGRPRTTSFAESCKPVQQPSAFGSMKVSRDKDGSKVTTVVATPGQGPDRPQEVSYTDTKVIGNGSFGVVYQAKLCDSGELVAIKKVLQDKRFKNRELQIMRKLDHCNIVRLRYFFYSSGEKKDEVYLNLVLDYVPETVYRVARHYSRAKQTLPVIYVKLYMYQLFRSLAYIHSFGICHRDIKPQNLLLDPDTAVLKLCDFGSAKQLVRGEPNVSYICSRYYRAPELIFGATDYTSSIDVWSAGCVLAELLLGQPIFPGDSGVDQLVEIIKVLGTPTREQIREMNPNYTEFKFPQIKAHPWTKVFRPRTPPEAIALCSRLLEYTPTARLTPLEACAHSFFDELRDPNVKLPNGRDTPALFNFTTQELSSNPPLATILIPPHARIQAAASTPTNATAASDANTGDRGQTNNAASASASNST
Sequence of Tyrosine-protein kinase BTK (Q06187 whole entry): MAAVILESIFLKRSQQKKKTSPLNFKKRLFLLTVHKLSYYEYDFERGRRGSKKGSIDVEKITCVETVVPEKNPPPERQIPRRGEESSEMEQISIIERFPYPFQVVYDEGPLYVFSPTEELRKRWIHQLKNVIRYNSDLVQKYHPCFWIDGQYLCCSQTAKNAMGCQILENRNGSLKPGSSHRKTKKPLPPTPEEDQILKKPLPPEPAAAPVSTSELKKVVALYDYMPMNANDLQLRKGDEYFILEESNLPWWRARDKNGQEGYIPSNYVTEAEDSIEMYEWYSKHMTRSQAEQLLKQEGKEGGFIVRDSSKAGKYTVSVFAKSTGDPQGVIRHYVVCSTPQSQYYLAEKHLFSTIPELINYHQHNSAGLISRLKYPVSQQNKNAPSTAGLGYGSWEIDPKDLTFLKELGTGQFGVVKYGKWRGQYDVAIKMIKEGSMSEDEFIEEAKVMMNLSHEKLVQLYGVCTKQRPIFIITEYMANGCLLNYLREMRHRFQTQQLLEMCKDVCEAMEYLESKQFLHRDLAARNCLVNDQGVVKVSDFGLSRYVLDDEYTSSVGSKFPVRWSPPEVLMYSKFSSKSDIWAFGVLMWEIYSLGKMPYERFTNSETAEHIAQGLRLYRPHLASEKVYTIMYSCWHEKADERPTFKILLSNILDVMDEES
Sequence of Serine/threonine-protein kinase MARK1 (Homo sapiens) (Q9P0L2 whole entry, looked up): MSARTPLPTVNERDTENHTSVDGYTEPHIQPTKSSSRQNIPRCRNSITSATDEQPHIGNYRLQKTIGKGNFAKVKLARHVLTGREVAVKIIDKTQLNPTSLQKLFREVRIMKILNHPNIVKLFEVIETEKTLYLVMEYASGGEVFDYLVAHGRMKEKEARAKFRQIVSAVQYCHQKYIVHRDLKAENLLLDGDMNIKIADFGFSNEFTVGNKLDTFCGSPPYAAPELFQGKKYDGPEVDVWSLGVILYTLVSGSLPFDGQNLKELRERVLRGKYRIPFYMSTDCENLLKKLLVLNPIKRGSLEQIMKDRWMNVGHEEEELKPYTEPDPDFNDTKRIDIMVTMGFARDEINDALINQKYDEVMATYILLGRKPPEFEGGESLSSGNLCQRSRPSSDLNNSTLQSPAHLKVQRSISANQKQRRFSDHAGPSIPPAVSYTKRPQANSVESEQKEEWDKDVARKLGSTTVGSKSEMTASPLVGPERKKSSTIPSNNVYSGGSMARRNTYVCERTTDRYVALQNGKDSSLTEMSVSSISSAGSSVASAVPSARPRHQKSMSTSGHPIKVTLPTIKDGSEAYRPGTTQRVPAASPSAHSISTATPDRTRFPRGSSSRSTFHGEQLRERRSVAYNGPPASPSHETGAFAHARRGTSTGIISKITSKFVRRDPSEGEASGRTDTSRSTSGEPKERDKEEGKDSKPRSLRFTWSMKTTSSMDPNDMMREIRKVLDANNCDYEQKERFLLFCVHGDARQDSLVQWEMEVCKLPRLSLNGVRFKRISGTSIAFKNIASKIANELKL

## CCC(=O)N1CCN(c2ccc(-n3c(=O)ccc4cnc5ccc(-c6cnc7ccccc7c6)cc5c43)cc2C(F)(F)F)CC1
[1]
  % of control: 80%

## C=CC(=O)Nc1cccc(C(=O)Nc2ccc(Nc3cc(-c4[nH]c(SC)nc4C)ccn3)cc2)c1
[2]; at 1 µM
  % of control: 92%
[2]; at 5 µM
  % of control: 104%

## C=CC(=O)Nc1ccc(C(=O)Nc2[nH]nc3c2CN(C(=O)N[C@H](CN(C)C)c2ccccc2)C3(C)C)cc1
[3]
  % of engagement: 8.7%

## CCC(=O)N1CC[C@H](Nc2ncnc3c2CN(c2cnc(OC)c(C(F)(F)F)c2)CC3)C1 [LENIOLISIB]
[4]
  IC50: > 10 µM

## CCc1cccc(CC)c1NC(=O)c1nn(C)c2c1CCc1cnc(Nc3ccc(C(=O)NC4CCN(C)CC4)cc3OC(F)(F)F)nc1-2
[5]
  IC50: > 10 µM

## CNC(=O)Nc1ccc(-c2nc(N3CC4CCC(C3)O4)c3cnn(C4CCC5(CC4)OCCO5)c3n2)cc1
[6]
  % of control: 100%

## N#Cc1cccc(-c2c[nH]c3ncnc(N4CCOCC4)c23)c1
[7]
  % of inhibition: -27%
